{"source": "patent US20230391868A1", "about": "“COMPOSITIONS FOR AND METHODS OF TREATING CANCER” (The George Washington University, priority 2022, published 2023)", "key": {"[1]": {"test_system": "human THP1-derived macrophages", "assay": "Pro-phagocytic signal gene expression in THP1-derived macrophages", "type": "cell-based", "details": "human THP1-derived macrophages", "description": "(§1) Macrophages were polarized to M1-like phenotype using 50 ng/mL of interferon gamma (IFNγ, 575306, Biolegend) and 100 ng/mL of bacterial lipopolysaccharide (LPS, L2880, Sigma Aldrich, St. Louis, MO) for 24 hours. To polarize macrophages towards the M2-like phenotype, macrophages were stimulated with 20 ng/mL of IL-4 (214-14, PeproTech) and 20 ng/mL of IL-13 (575904, Biolegend). THP1 monocytes were treated with 5 ng/mL of phorbol 12-myristate 13-acetate (PMA) to induce differentiation into macrophages. Once converted to macrophages, media was replaced to remove PMA prior to treatment and/or polarization. Polarization towards M1 and M2 phenotypes was performed with respective recombinant human cytokines from PeproTech: 50 ng/mL of IFNγ (300-02), 20 ng/mL IL-4 (200-04), and 20 ng/mL IL-13 (200-13). 100 ng/mL LPS was also used to polarize toward the M1 phenotype. 3. In vivo Studies.\nqRT-PCR: Total RNA was extracted from cells using the Trizol reagent according to manufacturer's instructions (ThermoFisher Scientific, 15596018). Samples were then processed immediately or stored at −80° C. RNA was quantified using a NanoDrop One Spectrophotometer (ThermoFisher Scientific). The 260/280 ratios were routinely over 1.8. Sample cDNA was produced using the iScript cDNA synthesis kit (Bio-Rad, 1708891). Target mRNA was quantified using MyIQ single-color real-time PCR detection system from Bio-Rad (Bio-Rad, Hercules, CA) and iQ SYBR green Supermix (Bio-Rad, 1708882). The following primers were synthesized by Invitrogen (Waltham, MA) with sequences designed by Origene (Rockville, MD): mouse R-actin (MP200232), mouse Nos2 (MP208933), mouse MRC1 (MP207800), human R-actin (HP204660), human IL-1β (HP200544), human MRC1 (HP206121), human NOS2 (HP200591), human CD209 (HP214086), mouse SIRPα (MP215450), mouse LRP1 (MP207604), human LRP1 (HP206040), mouse MFGE8 (MP208190), human MFGE8 (HP225757), mouse CD36 (MP201923), human CD36 (HP200058), and mouse CD47 (MP201932). […] Quantification is expressed in arbitrary units and target mRNA levels were normalized to R-actin expression."}, "[2]": {"test_system": "A31A7 macrophages and BMDMs", "assay": "Macrophage cell surface marker expression by flow cytometry", "type": "cell-based, mouse", "description": "Bone marrow-derived macrophages were isolated from the femurs and tibias of wild-type C57/Bl6, HDAC6 knockout (C57BL/6J-Hdac6em2Lutzy/J, 029318, Jackson Laboratory), or UBC-GFP (C57BL/6-Tg(UBC-GFP)30Scha/J, 004353, Jackson Laboratory). Isolated bone marrow cells were cultured in RPMI 1640 complete medium with 10% FBS, 1% NEAA, and 1% penicillin-streptomycin in 5% CO2 at 37° C. Medium was supplemented with murine recombinant M-CSF (20 ng/mL, 576404, Biolegend) to differentiate monocytes into macrophages. Three days after bone marrow isolation, undifferentiated and floating cells were washed with PBS and replaced with fresh RPMI media. A3.1A7 cells and BMDMs were pretreated with 5 μM of HDAC6 inhibitor NextA or vehicle prior to adding polarizing cytokines.\nas §1, with “Polarization towards M1 and M2 phenotypes was performed with respective recombinant human cytokines from PeproTech: 50 ng/mL of IFNγ (300-02), 20 ng/mL IL-4 (200-04), and 20 ng/mL IL-13 (200-13). 100 ng/mL LPS was also used to polarize toward the M1 phenotype. 3. In vivo Studies.” left out"}}}
{"molecule": "CCCCN(Cc1ccc(C(=O)NO)cc1)C(=O)Nc1ccccc1", "note": "[NextA, Nexturastat A]", "values": [{"measurement": "expression of Lrp1, Cd36, and Mfge8", "setting": "[1]", "value": "significant increase"}, {"measurement": "cell surface expression of CD80 and H2", "setting": "[2]; A31A7 and BMDMs polarized to M1-like phenotypes, 5 μM (FIG. 1B)", "value": "upregulation"}, {"measurement": "CD206 surface expression", "setting": "[2]; A31A7 cells and BMDMs, M2, 5 μM (FIG. 1D)", "value": "significantly downregulated"}]}
